Measurements reported in patent US20090238760A1, “ANTISPERMATOGENIC, SPERMICIDAL AND/OR ANTIFUNGAL COMPOSITION AND METHODS OF USING THE SAME” (Research Triangle Institute, priority 2006, published 2009).
Where two headings read alike, the source gives them in different places. Each block holds one molecule with its values, some of them ahead of it.

Key:
[1] = target: testes receptor (testis membranes); test: Displacement of [125I]074(d) from rat testis membranes (Scatchard / displacement binding assay)
Procedure: • 1. […] Homogenize the tissue for 20 sec with a Polytron tissue homogenizer (probe no. PTA 10S, 12 mm) at a medium setting (4-6 on a rheostat scale of 10) or until a smooth suspension is obtained. • 4. Pour the homogenate into a chilled 50 ml, centrifuge tube, and centrifuge at 0-4° C. and 500×g ( 1540 rpm in an […]) for 10 min. • 5. Decant the supernatant into clean 10 ml, centrifuge tubes, using multiple tubes as necessary. • 6. Centrifuge the decanted supernatant at 0-4° C. and 17000×g ( 11900 rpm in a Sorvall SS-34 rotor) for 12 min. • 7. Decant and discard the supernatants. […] Perform a total protein assay on resuspended pellet. The […] assay measures the binding of a radiolabeled test compound, over a wide concentration range, to the membrane receptors in both the absence (total binding) and presence (non-specific binding) of non-radioactive compound. Calculation of the resulting assay data yields the Kd of the test compound. • 1. Label 1.2 mL polypropylene tubes in duplicate for each [^125I]074(d) standard total binding and non-specific binding (NSB) determination and place in 96-well matrix test tube racks. Label liquid scintillation vials for free radioactivity determination. • 2. Prepare dilutions of the [^125I]074(d) ranging in concentration from approximately 1 to 200 nM or other desired concentration range. Prepare cold drug at a concentration of at least 100 times the level of the highest level of radiolabeled standard (e.g. 20-40 µM) for NSB determination. • 3. Set up the assay as follows: • 4. […] Add 0.1 mL (200 μg) to each assay tube. Vortex to mix. • 5. Incubate assay at 25° C. for 2 hours while gently shaking at 30-35 rpm (e.g. Precision Scientific Reciprocal Shaker or equivalent). • 6. […] Near the end of the incubation period, place a blank wash plate in the cell harvester (model MPXR-96T, Brandel Scientific, Gaithersburg, Md.). Place cold wash buffer in the reservoir supplying the harvester. Prime the harvester with buffer. Replace the dummy filter plate with the pre-soaked plate. • 8. At the end of the incubation period, remove tubes from incubator. Place the harvester prongs into the tubes, and vacuum to deposit the reaction mixture onto the filter plate. Rinse the reaction tubes 3-4 times with cold buffer and vacuum through the filter plate. • 9. Remove the filter plate from the harvester and allow it to dry thoroughly, using a warm oven if desired. • 10. Seal the bottom of the plate. Insert the plate into the cocktail dispenser and add cocktail (Micro-Scint 20, Perkin Elmer LAS, Shelton, Conn.) to each well • 11. Seal the top of the plate. Allow the plate to sit at least one hour or overnight and then count. • 1. For each level of standard, determine the CP Ms of free (essentially equivalent to total radioactivity added), total bound, and non-specific bound (NSB) compound. • 2. Subtract the NSB CPMs from the corresponding total CP Ms for each standard level to determine specific bound for each standard level. • 3. Convert the free, specific bound and non-specific bound CPMs to a mass basis (e.g. pM) using the specific activity, counter efficiency for the isotope ( 70% for ^125I in a Packard Model 1900TR. Liquid Scintillation Analyzer) and assay dilution factor of the labeled material. • 4. For each standard level, divide the level of compound specifically bound by the corresponding free amount added. • 5. For […] analysis, perform a linear regression analysis where x=specific bound compound and y=ratio of corresponding specific bound/free compound added. • 6. The Kd=-1/slope of the line generated. • 7. For illustrative purposes, a binding isotherm graph can be generated where x=free compound and y=total bound, non-specific bound and specific bound compound. The displacement assay measures the ability of a test drug, over a wide concentration range, to compete with and displace a constant amount of a known radiolabeled drug bound to the testes receptor. Calculation of the resulting assay data yields the Ki of the test drug. • 1. […]

[2] = tested on: testes / spermatogenesis in Swiss (CD-1) mice; conditions: in words, Cook et al., cited from earlier work
[3] = tested on: testes / spermatogenesis in Swiss (CD-1) mice; test: Spermatogenic Index test: testes weight and spermatogenic index after a single oral dose; assay type: in vivo, mouse; conditions: male CD-1 mice, mean ± SEM; for Spermatogenic Index: 72 h, scale 1 to 6, 5 to 6 normal, vehicle control 5.5 ± 0.16; for Testes Weight: killed 72 h later, vehicle control 204 ± 11.9
Procedure: The compounds of the invention were tested in mice for their effects on spermatogenesis three days after a single oral dose by the procedure described in Cook et al (J. Med. […] Compounds active in this test have been shown also to be anti-fertility compounds. Compounds were screened for antispermatogenic activity by dosing male mice on day 1 with a gavage dose of control vehicle, positive control (compound 1) or compound of the invention. At 72 h after dosing, animals were killed and the testes were excised, trimmed of fat, and weighed. One testis was examined histologically and rated for spermatogenic potential using the Spermatogenic Index [[…]. Noden, J. Cherry and […]. Reprod. […], 72, 277 (1984)], which is a semiquantitative estimate of the sperm producing ability of the testes. The index is based on histological appearance of the spermatogenic cells in the seminiferous tubules. A scale of 1 to 6 is used with 5 to 6 being the normal status. A second assessment was based on the weight of the testes. […] Compounds were given orally to 8-week old male CD-1 mice in a single dose. Seventy-two hours later the animals were killed and the testes weighed. One testis was subjected to histological analysis and scored according to the Spermatogenic Index (SI) of Fail (see Cook et ah, J. Med. […] RTI-4587-056(l), and a vehicle control group was also analyzed.

[4] = tested on: testes / spermatogenesis in rats; conditions: single oral dose of 30 mg/kg to rats, within 24 h; cited from earlier work
spermatogenesis = conditions: oral administration to animals; cited from earlier work
[5] = average Ki, 25° C., 2 hours, for 074(d) the Ki is a Kd
[6] = J. Med. Chem., 1997, 40, 2111-2112

SMILES: CCN1CCC2C(C1)c1ccc(C)cc1C2c1ccc(C)cc1 (stereo not drawn) [RTI-4587-002(d)]
- Ki ([1]; as stated in the text, listed as -002(d)): 6.1 µM
- in vivo activity (antispermatogenic) ([2]; J. Med. Chem., 1997, 40, 2111-2112, listed as -002(d)): bioactive

SMILES: CCN1CCC2C(C1)c1ccc(C)cc1C2c1ccc(C)cc1 (stereo not drawn) [RTI-4587-002(l)]
- Ki ([1]; as stated in the text, listed as -002(l)): 66 µM
- Ki [1, 5]: 65.6 µM
- in vivo activity (antispermatogenic) ([2]; J. Med. Chem., 1997, 40, 2111-2112, listed as -002(l)): bioinactive

- Ki [1]: ~0.54 µM
- Ki [1, 5]: 0.54 µM
SMILES: CCN1CCC2C(C1)c1ccc(C)cc1C2c1ccc(C(=O)O)cc1 (stereo not drawn) [RTI-4587-054(d)]

- Ki [1]: ~330 µM
- Ki [1, 5]: 329 µM
SMILES: CCN1CCC2C(C1)c1ccc(C)cc1C2c1ccc(C(=O)O)cc1 (stereo not drawn) [RTI-4587-054(l)]
- in vivo activity (antispermatogenic) [2, 6]: inactive

- Ki [1, 5]: 207 µM
SMILES: CCN1CCC2C(C1)c1ccc(C)cc1C2c1ccc(C(=O)OC)cc1 (stereo not drawn) [RTI-4587-056(d)]

- Ki [1, 5]: 2.7 µM
SMILES: CCN1CC[C@H]2[C@H](c3ccc(C(=O)OC)cc3)c3cc(C)ccc3[C@H]2C1 [RTI-4587-056(l)]
- Spermatogenic Index ([3]; single oral dose 30 mg/kg, n=4): 3.69 ± 0.07
- Testes Weight ([3]; single oral dose 30 mg/kg, n=4): 173 ± 8.8 mg

- Ki [1, 5]: 67.3 µM
SMILES: CCN1CC[C@@H]2[C@@H](c3ccc(C(=O)OC)cc3)c3cc(C)c(I)cc3[C@@H]2C1 [RTI-4587-073(d)]

- Ki [1, 5]: 0.32 µM
SMILES: CCN1CC[C@H]2[C@H](c3ccc(C(=O)OC)cc3)c3cc(C)c(I)cc3[C@H]2C1 [RTI-4587-073(l), (4aS, 5R, 9bS)-5-(4-Carbomethoxyphenyl)-2-ethyl-2,3,4,4a,5,9b-hexahydro-8-iodo-7-methyl-1H-indeno[1,2-c]pyridine]
- Spermatogenic Index ([3]; single oral dose 1 mg/kg, n=5): 2.92 ± 0.15
- Testes Weight ([3]; single oral dose 1 mg/kg, n=5): 144 ± 4.9 mg

- Ki [1, 5]: ~0.027 µM
- Ki ([1]; average Ki, 25° C., 2 hours, for 074(d) the Ki is a Kd, listed as 074(d)): 0.027 µM
SMILES: CCN1CCC2C(C1)c1cc(I)c(C)cc1C2c1ccc(C(=O)O)cc1 (stereo not drawn) [RTI-4587-074(d)]
- in vivo activity (antispermatogenic) [2, 6]: much greater in vivo activity

SMILES: C#Cc1cc2c(cc1C)[C@@H](c1ccc(C(=O)OC)cc1)[C@@H]1CCN(CC)C[C@H]21 [RTI-4587-107, (4aS, 5R, 9bS)-5-(4-Carbomethoxyphenyl)-2-ethyl-8-ethynyl-2,3,4,4a,5,9b-hexahydro-7-methyl-1H-indeno[1,2-c]pyridine]
- Spermatogenic Index ([3]; single oral dose 20 mg/kg, n=5): 1.56 ± 0.20
- Testes Weight ([3]; single oral dose 20 mg/kg, n=5): 134.4 ± 7.0 mg

SMILES: CCN1CC[C@H]2[C@H](c3ccc(C(=O)OC)cc3)c3cc(C)c(C#Cc4ccccc4)cc3[C@H]2C1 [RTI-4587-109, (4aS, 5R,9bS)-5-(4-Carbomethoxyphenyl)-2-ethyl-2,3,4,4a,5,9b-hexahydro-7-methyl-8-(2-phenylethynyl)-1H-indeno[1,2-c]pyridine]
- Spermatogenic Index ([3]; single oral dose 20 mg/kg, n=5): 4.26 ± 0.12
- Testes Weight ([3]; single oral dose 20 mg/kg, n=5): 168.1 ± 16.4 mg

SMILES: CCN1CC[C@@H]2[C@@H](c3ccc(C)cc3)c3cc(C)ccc3[C@@H]2C1.Cl [Sandoz 20-438]
- weights of the testes [4]: drastically reducing
- inhibition of spermatogenesis (spermatogenesis): reversible inhibition of spermatogenesis
